From US11565022B2, “Therapy for post-traumatic osteoarthritis” (University of Iowa Research Foundation, priority 2015, dated 2023)

Tested on: complex I of the electron transport chain in chondrocytes
Test: complex I activity in the presence or absence of amobarbital (FIG. 4)
Format: biochemical

For `CCC1(CCC(C)C)C(=O)NC(=O)NC1=O` [amobarbital], the “biochemical activity of complex I of the electron transport chain” value was “directly inhibits”.
